What all share (assay type): functional, cell-based
In assay [1] the test system is LoVo. Put plainly: Cytotoxicity against human LoVo cells.
In assay [2] the test system is KB. Kind of assay: Cytotoxicity against human KB cells.
Assay [3] concerns LoVo. Kind of assay: Cytotoxicity against human LoVo cells at < 10 uM.
For assay [4], the system named is KB. Kind of assay: Cytotoxicity against human KB cells at < 10 uM.

Activity calls are given as the source filed them. The calls are words filed in the database; no cut-off is given here.

The record followed here is ChEMBL document CHEMBL1150113, “Ulongamides A-F, new beta-amino acid-containing cyclodepsipeptides from Palauan collections of the marine cyanobacterium Lyngbya sp” (J Nat Prod, 2002).

For `CCC[C@H]1NC(=O)c2csc(n2)[C@H](C)NC(=O)[C@H](C(C)C)N(C)C(=O)[C@H](Cc2ccc(O)cc2)N(C)C(=O)[C@H](C)OC(=O)[C@@H]1C` [ULONGAMIDE B], the IC50 came to 5 µM in the assay on LoVo [1] and 1000 nM with KB [2].

Take `CCC[C@H]1NC(=O)c2csc(n2)[C@H](C)NC(=O)[C@H](C(C)C)N(C)C(=O)[C@H](Cc2ccc(O)cc2)N(C)C(=O)[C@H]([C@H](C)CC)OC(=O)[C@H]1C` [ULONGAMIDE E]: the IC50 in the assay with LoVo [1] amounted to 5 µM; with KB [2] it was 1000 nM.

For the molecule `CCC[C@H]1NC(=O)c2csc(n2)[C@H](C)NC(=O)[C@H](Cc2ccccc2)N(C)C(=O)[C@H](Cc2ccc(O)cc2)N(C)C(=O)[C@H](C)OC(=O)[C@@H]1C` [ULONGAMIDE C], the IC50 in the assay on LoVo [1] was 5 µM; with KB [2], 1000 nM.

On to `CCC[C@H]1NC(=O)c2csc(n2)[C@H](C)NC(=O)[C@H](C(C)C)N(C)C(=O)[C@H](C(C)C)NC(=O)[C@H]([C@@H](C)CC)OC(=O)[C@H]1C`, for which the result with LoVo [3] and in the assay on KB [4] was inactive.

With `CCC[C@H]1NC(=O)c2csc(n2)[C@H](C)NC(=O)[C@H](C(C)C)N(C)C(=O)[C@H](Cc2ccccc2)N(C)C(=O)[C@H](C)OC(=O)[C@@H]1C` [ULONGAMIDE A], the IC50 with LoVo [1] turned out to be 5 µM; in the assay with KB [2], 1000 nM.

Consider `CCC[C@H]1NC(=O)c2csc(n2)[C@H](C)NC(=O)[C@H](C(C)C)N(C)C(=O)[C@H](Cc2ccc(O)cc2)N(C)C(=O)[C@H](C(C)C)OC(=O)[C@H]1C` [ULONGAMIDE D], for which the IC50 stood at 5 µM in the assay on LoVo [1] and 1000 nM in the assay on KB [2].
